Laboratory results reported in PubChem BioAssay (NCI).
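Each compound was tested at five concentrations against cells in 96-well plates for 48 hours. Definition used: TGI = concentration required for complete inhibition of growth.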

Columns and labels:
Assay in all cases: NCI tumour cell line growth inhibition, 48 h
786-0 renal = system: 786-0 renal
A498 renal = system: A498 renal
A549 NSCLC = system: A549 NSCLC
ACHN renal = system: ACHN renal
CAKI-1 renal = system: CAKI-1 renal
CCRF-CEM leukemia = system: CCRF-CEM leukemia
COLO 205 colon = system: COLO 205 colon
DLD-1 colon = system: DLD-1 colon
DMS 114 small cell lung = system: DMS 114 small cell lung
DMS 273 small cell lung = system: DMS 273 small cell lung
EKVX NSCLC = system: EKVX NSCLC
HCC-2998 colon = system: HCC-2998 colon
HCT-116 colon = system: HCT-116 colon
HCT-15 colon = system: HCT-15 colon
HL-60(TB) leukemia = system: HL-60(TB) leukemia
HOP-18 NSCLC = system: HOP-18 NSCLC
HOP-92 NSCLC = system: HOP-92 NSCLC
HT29 colon = system: HT29 colon
IGROV1 ovarian = system: IGROV1 ovarian
K-562 leukemia = system: K-562 leukemia
KM12 colon = system: KM12 colon
KM20L2 colon = system: KM20L2 colon
LOX IMVI melanoma = system: LOX IMVI melanoma
LXFL 529 NSCLC = system: LXFL 529 NSCLC
M14 melanoma = system: M14 melanoma
M19-MEL melanoma = system: M19-MEL melanoma
MALME-3M melanoma = system: MALME-3M melanoma
MOLT-4 leukemia = system: MOLT-4 leukemia
NCI-H226 lung = system: NCI-H226 lung
NCI-H23 lung = system: NCI-H23 lung
NCI-H460 lung = system: NCI-H460 lung
NCI-H522 lung = system: NCI-H522 lung
OVCAR-3 ovarian = system: OVCAR-3 ovarian
OVCAR-4 ovarian = system: OVCAR-4 ovarian
OVCAR-5 ovarian = system: OVCAR-5 ovarian
OVCAR-8 ovarian = system: OVCAR-8 ovarian
RPMI-8226 leukemia = system: RPMI-8226 leukemia
RXF-631 renal = system: RXF-631 renal
SF-268 CNS = system: SF-268 CNS
SF-295 CNS = system: SF-295 CNS
SF-539 CNS = system: SF-539 CNS
SK-MEL-2 melanoma = system: SK-MEL-2 melanoma
SK-MEL-28 melanoma = system: SK-MEL-28 melanoma
SK-MEL-5 melanoma = system: SK-MEL-5 melanoma
SK-OV-3 ovarian = system: SK-OV-3 ovarian
SN12C renal = system: SN12C renal
SNB-75 CNS = system: SNB-75 CNS
SNB-78 CNS = system: SNB-78 CNS
SR leukemia = system: SR leukemia
SW-620 colon = system: SW-620 colon
TK-10 renal = system: TK-10 renal
U251 CNS = system: U251 CNS
UACC-257 melanoma = system: UACC-257 melanoma
UACC-62 melanoma = system: UACC-62 melanoma
UO-31 renal = system: UO-31 renal
HOP-62 NSCLC = system: HOP-62 NSCLC
SNB-19 CNS = system: SNB-19 CNS
XF 498 CNS = system: XF 498 CNS

C/C=C/C=N/N(c1nnc(-c2ccccc2)c(-c2ccccc2)n1)S(=O)(=O)c1ccc(C)cc1
TGI (786-0 renal): 19.2 µM | TGI (A498 renal): 27.6 µM | TGI (A549 NSCLC): 28.1 µM | TGI (ACHN renal): 24.3 µM | TGI (CAKI-1 renal): 31.4 µM | TGI (CCRF-CEM leukemia): 9.21 µM | TGI (COLO 205 colon): 35.7 µM | TGI (DLD-1 colon): 32.7 µM | TGI (DMS 114 small cell lung): 37.6 µM | TGI (DMS 273 small cell lung): 29.8 µM | TGI (EKVX NSCLC): 31.9 µM | TGI (HCC-2998 colon): 31.3 µM | TGI (HCT-116 colon): 28 µM | TGI (HCT-15 colon): 18.6 µM | TGI (HL-60(TB) leukemia): 6.36 µM | TGI (HOP-18 NSCLC): 27.4 µM | TGI (HOP-92 NSCLC): 31.3 µM | TGI (HT29 colon): 24.1 µM | TGI (IGROV1 ovarian): 29.3 µM | TGI (K-562 leukemia): > 100 µM | TGI (KM12 colon): 22.9 µM | TGI (KM20L2 colon): 26.1 µM | TGI (LOX IMVI melanoma): 13.8 µM | TGI (LXFL 529 NSCLC): 19.3 µM | TGI (M14 melanoma): 15.8 µM | TGI (M19-MEL melanoma): 36.3 µM | TGI (MALME-3M melanoma): 22.8 µM | TGI (MOLT-4 leukemia): 26.6 µM | TGI (NCI-H226 lung): 31.2 µM | TGI (NCI-H23 lung): 29.7 µM | TGI (NCI-H460 lung): 28.3 µM | TGI (NCI-H522 lung): 19.4 µM | TGI (OVCAR-3 ovarian): 25.2 µM | TGI (OVCAR-4 ovarian): 28.2 µM | TGI (OVCAR-5 ovarian): 33.5 µM | TGI (OVCAR-8 ovarian): 20.7 µM | TGI (RPMI-8226 leukemia): 36.6 µM | TGI (RXF-631 renal): 73.2 µM | TGI (SF-268 CNS): 18 µM | TGI (SF-295 CNS): 22.9 µM | TGI (SF-539 CNS): 23.8 µM | TGI (SK-MEL-2 melanoma): 24.1 µM | TGI (SK-MEL-28 melanoma): 28.7 µM | TGI (SK-MEL-5 melanoma): 23.1 µM | TGI (SK-OV-3 ovarian): 33.8 µM | TGI (SN12C renal): 20.7 µM | TGI (SNB-75 CNS): 19.9 µM | TGI (SNB-78 CNS): 83.2 µM | TGI (SR leukemia): 21.1 µM | TGI (SW-620 colon): 14.9 µM | TGI (TK-10 renal): 28.2 µM | TGI (U251 CNS): 12.7 µM | TGI (UACC-257 melanoma): 20.9 µM | TGI (UACC-62 melanoma): 11.6 µM | TGI (UO-31 renal): 19.6 µM

COc1ccc(/C=C/c2cc(OC)c(O[Si](C)(C)C(C)(C)C)c(OC)c2)cc1
TGI (786-0 renal): > 100 µM | TGI (A498 renal): > 100 µM | TGI (A549 NSCLC): > 100 µM | TGI (ACHN renal): > 100 µM | TGI (CAKI-1 renal): > 100 µM | TGI (CCRF-CEM leukemia): > 100 µM | TGI (COLO 205 colon): > 100 µM | TGI (DLD-1 colon): > 100 µM | TGI (DMS 114 small cell lung): > 100 µM | TGI (DMS 273 small cell lung): > 100 µM | TGI (EKVX NSCLC): > 100 µM | TGI (HCC-2998 colon): > 100 µM | TGI (HCT-116 colon): > 100 µM | TGI (HCT-15 colon): > 100 µM | TGI (HOP-62 NSCLC): > 100 µM | TGI (HOP-92 NSCLC): > 100 µM | TGI (HT29 colon): > 100 µM | TGI (IGROV1 ovarian): > 100 µM | TGI (K-562 leukemia): > 100 µM | TGI (KM12 colon): > 100 µM | TGI (KM20L2 colon): > 100 µM | TGI (LXFL 529 NSCLC): > 100 µM | TGI (M14 melanoma): > 100 µM | TGI (M19-MEL melanoma): > 100 µM | TGI (MALME-3M melanoma): > 100 µM | TGI (MOLT-4 leukemia): > 100 µM | TGI (NCI-H226 lung): > 100 µM | TGI (NCI-H23 lung): > 100 µM | TGI (NCI-H460 lung): > 100 µM | TGI (NCI-H522 lung): > 100 µM | TGI (OVCAR-3 ovarian): > 100 µM | TGI (OVCAR-4 ovarian): > 100 µM | TGI (OVCAR-5 ovarian): > 100 µM | TGI (OVCAR-8 ovarian): > 100 µM | TGI (RPMI-8226 leukemia): > 100 µM | TGI (RXF-631 renal): > 100 µM | TGI (SF-268 CNS): > 100 µM | TGI (SF-539 CNS): > 100 µM | TGI (SK-MEL-2 melanoma): > 100 µM | TGI (SK-MEL-28 melanoma): 86.6 µM | TGI (SK-MEL-5 melanoma): > 100 µM | TGI (SK-OV-3 ovarian): > 100 µM | TGI (SN12C renal): > 100 µM | TGI (SNB-19 CNS): > 100 µM | TGI (SNB-75 CNS): > 100 µM | TGI (SW-620 colon): > 100 µM | TGI (U251 CNS): > 100 µM | TGI (UACC-257 melanoma): > 100 µM | TGI (UACC-62 melanoma): > 100 µM | TGI (UO-31 renal): > 100 µM | TGI (XF 498 CNS): > 100 µM
